From patent publication US20240002437A1, “COMPOSITIONS AND METHODS OF TREATING INFLAMMATORY LUNG DISEASES” (priority 2020, published 2024)

How the values were obtained:
Type in all cases: cell-based, ovine
[1] = test system: mitochondrial redistribution of eNOS; test: Immunofluorescent microscopy of eNOS mitochondrial redistribution in PAEC
Description: (§1) Primary cultures of ovine pulmonary arterial endothelial cells (PAEC) were isolated as described previously (L. K. Kelly, Am J Physiol Lung Cell Mol Physiol, 286(5), L984-91 (2004)). Briefly, cells were maintained in Dulbecco's modified Eagle medium (DMEM) supplemented with 10% fetal calf serum (Hyclone, Logan, UT), antibiotics/antimycotic (500 IU Penicillin, 500 μg/ml Streptomycin, 1.25 μg/ml Amphotericin B; MediaTech, Herndon, VA) at 37° C. in a humidified atmosphere with 5% CO2 and 95% air. Cells were used for experiments between passages 9-14, seeded at ˜50% confluence, and utilized when fully confluent.
PAEC were grown on cover glass for three days after reaching 100% confluence, and fixed with 4% paraformaldehyde (Thermo Fisher Scientific) for 30 min, permeabilized with 100% cold methanol at −20° C. for 5 min Cell then blocked with 1% BSA for 1 hour, and later incubated with first antibody overnight at 4° C. then secondary antibody at room temperature for 1 hour. Finally, cells were mounted on microscope slides using ProLong Glass Antifade Mountant, (Invitrogen, Carlsbad, CA, Cat #P36980). […] The images were analyzed with ImagePro Plus 7.0 (W. Casavan, Microscopy Today, 11(6), 48-50 (2003)) or ImageJ software to evaluate the colocalization of fluorescent.

[2] = test system: PAEC monolayers; test: Trans endothelial resistance (TER) of PAEC monolayers
Description: as §1
Transendothelial Electrical Resistance (TER) was determined to characterize the integrity of PAEC monolayers using an electrical cell-substrate impedance sensing (ECIS) instrument ECIS Z-Theta (Applied BioPhysics, Troy, NY) as previously described (J. N. Gonzales, Vascul Pharmacol, 62(2), 63-71 (2014); S. Aggarwal, American Journal of Respiratory Cell and Molecular Biology, 50(3), 614-25 (2014)). The cells were plated in 8-well ECIS arrays (Applied BioPhysics) in complete cell culture medium (DMEM supplemented with 10% FBS) and grown to 100% confluency for 2 days. […] After a baseline measurement, the EC were treated with 4αPDD, PMA, the eNOS pT495 decoy peptide, or vehicle at the indicated concentrations, and changes in TER were recorded in real time.

[3] = test system: eNOS phosphorylation at T495; test: Western blot of pT495-eNOS in PAEC
Description: as §1
Protein extracts were prepared using lysis buffer (50 mM Tris-HCl, pH 7.6, 0.5% Triton X-100, 20% glycerol) containing HALT™ protease inhibitor cocktail (Pierce Laboratories, Rockford, IL). The extracts were then subjected to centrifugation (15,000 g for 15 min at 4° C.). Supernatant fractions were assayed for protein concentration using the Bradford reagent (Bio-Rad, Richmond, CA) then used for Western blot analyses. Protein extracts (25-50 μg) were separated on Long-Life 4-20% Tris-SDS-Hepes gels and electrophoretically transferred to IMMUNO-BLOT™ PVDF membrane (Bio-Rad Laboratories, Hercules, CA) Immunoblotting was then carried out using the appropriate antibodies in Tris-base buffered saline with 0.1% Tween 20 and 5% nonfat milk. After washing, the membranes were probed with horseradish peroxidase-conjugated goat antiserum to rabbit or mouse. Reactive bands were visualized using chemiluminescence (Super Signal West Femto; Pierce, Rockford, IL) on a LI-COR Odyssey image station (Lincoln, NE). Bands were quantified using LI-COR Image Station software. Loading was normalized by reprobing the membranes with an antibody specific to β-actin.

[4] = test system: NOS-derived superoxide; test: NOS-derived superoxide by EPR (eNOS uncoupling) in PAEC
Description: as §1
Superoxide levels were estimated by electron paramagnetic resonance (EPR) assay using the spin-trap compound 1-hydroxy-3-methoxycarbonyl-2,2,5,5-tetramethylpyrrolidine HCl (CMH, Axxora) as described previously. Superoxide in PAEC was trapped by incubating PAEC with 20 μl of CMH stock solution (20 mg/ml) for 1 h, followed by trypsinization and centrifugation at 500 g. The cell pellet was suspended in 35 μl DPBS and loaded into a capillary tube which was then analyzed with a MiniScope MS200 EPR machine (Magnettech, Berlin, Germany). Pre-incubating cells or tissue with 100 μM ethylisothiourea (ETU, Sigma-Aldrich) for 30 min followed by incubation with CMH measured NOS-derived superoxide. EPR spectra were analyzed using ANALYSIS v.2.02 software (Magnettech). Differences between levels of samples incubated in the presence and absence of ETU were used to determine NOS-dependent superoxide generation.

[5] = test system: PAEC; test: Mitochondrial ROS levels (MitoSOX Red) in PAEC; conditions: 4αPDD 10 μM, 3 h
Description: as §1
MitoSOX™ Red (Molecular Probes), a fluorogenic dye for selective detection of ROS levels in the mitochondria of live cells was used. Briefly, cells were washed with fresh media, and then incubated in media containing MitoSOX Red (2 μM), for 30 min at 37° C. in dark conditions then subjected to fluorescence microscopy at an excitation of 510 nm and an emission at 580 nm. An Olympus IX51 microscope equipped with a CCD camera (Hamamatsu Photonics) was used for acquisition of fluorescent images. The average fluorescent intensities (to correct for differences in cell number) were quantified using ImagePro Plus version 5.0 imaging software (Media Cybernetics, Rockville, MD).

Molecule	PMA-induced mitochondrial redistribution of eNOS ([1]; d-peptide and PMA)	barrier disruption induced by 4αPDD (normalized TER) ([2]; d-peptide plus 4αPDD)	PMA-mediated increase in pT495-eNOS ([3]; d-peptide 1 μg/ml, PMA 100 nm, 2 h)	eNOS uncoupling (NOS-derived superoxide levels) ([4]; d-peptide and PMA)	mitochondrial redistribution of eNOS ([1]; 4αPDD)	TER (barrier integrity) ([2]; 4αPDD 0-15 μM)	eNOS phosphorylation at T495 ([3]; 4αPDD)	NOS derived superoxide generation (eNOS uncoupling) ([4]; 4αPDD)	mitochondrial ROS levels (MitoSOX red fluorescence) [5]
HRKKRRQRRITRKKTFKEVA [d-peptide]	attenuated	reduced	attenuated the PMA-mediated increase in pT495-eNOS	reduced eNOS uncoupling					
CCCCCCCCCC(=O)O[C@@H]1[C@@H](C)[C@@]2(O)[C@@H](C=C(CO)C[C@@]3(O)C(=O)C(C)=C[C@@H]23)[C@@H]2C(C)(C)[C@]12OC(=O)CCCCCCCCC [4αPDD, 4α-Phorbol-12,13 didecanoate]					induces the mitochondrial redistribution of eNOS	dose-dependent decrease in TER	increase in eNOS phosphorylation at T495	increases in NOS derived superoxide generation	increases in mitochondrial ROS levels
